Tested on: Male Sprague Dawley rats
Assay: Charcoal transit model of postoperative ileus (POI) after cecum manipulation
Assay type: in vivo, rat
Settings: for % GI Transfer: 4 h after oral charcoal meal; for Dose response of the effect on POI (in words): low versus high dose gel formulations; for Prevention of POI (in words): delivered via gel to the manipulated intestines
Description: The charcoal transit model is an acceptable and established model to study the effects of abdominal surgery on intestinal motility. We followed the procedure as described by De Winter et al. (1997) (Reference: Effect of adrenergic and nitrergic blockade on experimental ileus in rats. British Journal of Pharmacology (1997) 120, 464-468. Benedicte Y. De Winter, Guy E. Boeckxstaens, Joris G. De Man, Tom G. Moreels, Arnold G. Herman & Paul A. Pelckmans). The model simulates the abdominal procedure in human and tests for gastric emptying and intestinal motility by the transfer of a charcoal meal fed to the animals.
Male Sprague Dawley rats, weighing 250-275 g (8 in group) were anesthetized with a xylazine/ketamine cocktail, injected IM, the abdomen was shaved and disinfected with alcohol and Betadyne. A 2.5 cm incision was made from the xyphoid process caudally. The intestinal contents was exteriorized onto wet gauze. The cecum was manipulated gently for 1 minute. The abdominal contents were replaced, the treatment was applied, and the body wall was closed with 4-0 PDS for the fascia and muscle layers. The skin was closed with wound clips. In addition, two control groups were tested as well: incision only and naïve. Treatment groups included two control groups, surgery (incision only) and naïve, and two treatment groups, a high and low dose of Diclofenac, as well as 3 wt % Na-CMC gel alone. The high and low dose of Diclofenac, as well as the 3 wt % Na-CMC gel were prepared as described above. 8 rats were included in each group with a total of 40 rats.
The rats were treated with an oral solution of charcoal (10%) in acacia gum (2%). Four hours following oral administration rats were euthanized with Euthasole. The intestines were exteriorized and the distance traveled by the charcoal meal was measured as well as the full length of the intestines (from the pylorus through the anus). Results are expressed as percent of distance traveled relative to the full length of the intestines.
Male Sprague Dawley rats, weighing 250-275 g (8 in group) were anesthetized with a xylazine/ketamine cocktail, injected IM, the abdomen was shaved and disinfected with alcohol and Betadyne. A 2.5 cm incision was made from the xyphoid process caudally. The intestinal contents was exteriorized onto wet gauze. The cecum was manipulated gently for 1 minute. The abdominal contents were replaced, the treatment was applied, and the body wall was closed with 4-0 PDS for the fascia and muscle layers. The skin was closed with wound clips. In addition, two control groups were tested as well: incision only and naïve. Treatment groups included two control groups, surgery (incision only) and naïve, and 4 treatment groups, a high and low dose of Diclofenac, a high and a low dose of Naproxen, as well as 3 wt % Na-CMC gel alone. The high and low dose of Diclofenac, as well as the 3 wt % Na-CMC gel were prepared as described above. 8 rats were included in each group with a total of 56 rats.

[1] = Example 2, both doses (0.3 and 2.0 mg) in gel, compared with non-treated and gel-alone animals
[2] = Example 2, high dose 2.0 mg in 3 wt % Na-CMC gel applied after intestinal manipulation
[3] = Example 2, low dose 0.3 mg in 3 wt % Na-CMC gel applied after intestinal manipulation

| Compound | Alleviation of POI (in words) [1] | % GI Transfer [2] [%] | % GI Transfer [3] [%] | Dose response of the effect on POI (in words) | Alleviation of POI (in words) (Example 2, high dose (2.0 mg) in gel) | Prevention of POI (in words) (Example 1, high dose, listed as Diclofenac sodium) | Prevention of POI (in words) (Example 1, high dose, listed as diclofenac) | % GI Transfer (Example 1, listed as 'Diclofenac-Na high', dose printed 0.3 mg, in 3 wt % Na-CMC gel applied after intestinal manipulation, distance traveled relative to full intestine length) [%] | % GI Transfer (Example 1, listed as 'Diclofenac-Na low', dose printed 1.0 mg, in 3 wt % Na-CMC gel applied after intestinal manipulation, distance traveled relative to full intestine length) [%] | Prevention of POI (in words) (Example 1, low dose) |
| --- | --- | --- | --- | --- | --- | --- | --- | --- | --- | --- |
| O=C(c1ccccc1)c1ccc2n1CCC2C(=O)O (stereo not drawn) [Ketorolac] | significant alleviation of the POI | 69.84 | 70.99 | dose response was not observed | – | – | – | – | – | – |
| COc1ccc2cc([C@H](C)C(=O)O)ccc2c1 [Naproxen] | both doses improved on the gastric emptying and intestinal transfer | 65.34 | 56.9 | dose related prevention of the POI | not completely curative | – | – | – | – | – |
| O=C(O)Cc1ccccc1Nc1c(Cl)cccc1Cl [Diclofenac-Na, Diclofenac sodium] | – | – | – | dose related manner | – | complete prevention | completely alleviated the POI | 73.58 | 95.05 | significant prevention of POI |
